Test results: patent US8030298B2, “17β-HSD1 and STS inhibitors” (Abbott Products GmbH, priority 2005, dated 2011)

Target: T1, recombinant human 17β-hydroxysteroid dehydrogenase type 1 (Homo sapiens, UniProt P14061)
T1 construct: made in house; host or cells: Sf9 insect cells (baculovirus, Bac to Bac Expression System)
T1 sequence (P14061 1-328): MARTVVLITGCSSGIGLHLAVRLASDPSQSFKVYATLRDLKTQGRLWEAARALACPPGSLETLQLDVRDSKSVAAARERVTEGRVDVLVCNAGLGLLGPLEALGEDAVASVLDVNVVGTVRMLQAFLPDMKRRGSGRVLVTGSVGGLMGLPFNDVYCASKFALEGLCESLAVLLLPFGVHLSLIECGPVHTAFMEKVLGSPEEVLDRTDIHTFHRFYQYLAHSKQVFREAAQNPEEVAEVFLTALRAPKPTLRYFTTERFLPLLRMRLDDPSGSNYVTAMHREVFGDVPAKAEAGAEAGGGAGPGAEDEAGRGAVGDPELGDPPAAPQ
Assay: Inhibition of recombinant human 17β-hydroxysteroid dehydrogenase type 1 (3H-estrone to estradiol conversion, HPLC)
Assay type: biochemical
Details: read-out: Inhibition of rec. 17β-HSD1 (% inhibition); for inhibition at 0.1 µM: inhibitor concentration 100 nM; for inhibition at 1 µM: 0.5 h, inhibitor concentration 1 μm
Protocol: 17β-HSD1 purification: Recombinant baculovirus was generated by the “Bac to Bac Expression System” (Invitrogen). Recombinant bacmid was transfected to Sf9 insect cells using “Cellfectin Reagent” (Invitrogen). 60 h later cells were harvested; the microsomal fraction was isolated as described by Puranen et al. (1994). Aliquots were stored frozen until determination of enzymatic activity.
Assay—Inhibition of recombinant human 17β-hydroxysteroid dehydrogenase type 1: Recombinant protein (0.1 μg/ml) was incubated in 20 mM KH2PO4 pH 7.4 with 30 nM 3H-estrone and 1 mM NADPH for 30 min at RT, in the presence of potential inhibitors at concentrations of 1 μM or 0.1 μM. Inhibitor stock solutions were prepared in DMSO. Final concentration of DMSO was adjusted to 1% in all samples. The enzyme reaction was stopped by addition of 10% trichloroacetic acid (final concentration). Samples were centrifuged in a microtiter plate at 4000 rpm for 10 min. Supernatants were applied to reverse phase HPLC on a Waters Symmetry C18 column, equipped with a Waters Sentry Guard column. Isocratic HPLC runs were performed at RT at a flow rate of 1 ml/min of acetonitrile:water 48:52 as running solvent. Radioactivity was monitored in the eluate by a Packard Flow Scintillation Analyzer. Total radioactivity for estrone and estradiol were determined in each sample and percent conversion of estrone to estradiol was calculated according to the following formula:
Percent inhibition was calculated as follows: % inhibition=100−% conversion

Row | Structure (SMILES) | inhibition at 0.1 µM | inhibition at 1 µM
1 | Cc1cnc(NC(=O)CC[C@@H]2CC(F)(F)[C@@]3(C)CC[C@@H]4c5ccc(O)cc5CC[C@H]4[C@H]23)s1 [Example 93, 3-(17,17-Difluoro-3-hydroxy-estra-1,3,5(10)-trien-15β-yl)-N-(5-methyl-thiazol-2-yl)-propionamide] | 59.5% | 
2 | C[C@]12CC[C@@H]3c4ccc(O)cc4CC[C@H]3[C@@H]1[C@H](CCCC(=O)N1CCOCC1)c1cn[nH]c12 [Example 162, 3-Hydroxy-15β-(4-morpholin-4-yl-4-oxo-butyl)-estra-1,3,5(10)-trien-[16,17-c]-pyrazole] | 63% | 93%
3 | C[C@]12CC[C@@H]3c4ccc(OS(N)(=O)=O)cc4CC[C@H]3[C@@H]1[C@H](CCCC(=O)N1CCOCC1)CC2=O [Example 163, 3-Sulphamate-15β-(4-morpholin-4-yl-4-oxo-butyl)-estra-1,3,5(10)-trien-17-one] | 10% | 43%
4 | C[C@]12CC[C@@H]3c4ccc(OS(=O)(=O)O)cc4CC[C@H]3[C@@H]1[C@H](CCCC(=O)N1CCOCC1)CC2=O [Example 164, 3-Sulphate-15β-(4-morpholin-4-yl-4-oxo-butyl)-estra-1,3,5(10)-trien-17-one] | 3% | 27%
